Laboratory results taken from US20220062240A1, “METHODS OF TREATING CANCER USING A CLK INHIBITOR” (BioSplice Therapeutics, Inc., priority 2018, published 2022).
Like-named read-outs stand apart in the source and are kept apart here. Each block holds one compound with its values, some of them ahead of it.

Key:
[1] = test system: SW480 colorectal cancer cells; assay: Gene expression qRT-PCR in SW480 cells; format: cell-based; settings: Homo sapiens
Experimental: SW480 colorectal cancer cells were plated at 1×10^4 cells per well into 96-well plates (Olympus). Compounds were diluted in cell culture media and added to the cells at a final concentration of 3 μM. Cells were treated with vehicle (DMSO) and compounds for 24 hours. N=3 biological replicates per conditions.
Following treatment, cells were lysed, and cDNA was generated using the Fastlane Cell cDNA Kit (Qiagen).
384-well PCR plates with pre-spotted primers for CLK1, CLK2, CLK3, DVL2, LRP5, SRSF1, SRSF3, SRSF4, SRSF5, TCF7, TCF7L2 were ordered from Bio-Rad. The generated cDNA, along with a SYBR Green qRT-PCR master mix (SsoAdvanced™ Universal SYBR® Green Supermix, Bio-Rad) was added to the PCR plates.
qRT-PCR was performed on the plates using a CFX384 Touch™ Real-Time PCR Detection System (Bio-Rad) with the manufacturer's recommended thermal cycling conditions.
Data from the qRT-PCR assay was normalized to the GAPDH and HPRT1 housekeeping genes and set gene expression fold change was set relative to vehicle-treated cells using the ΔΔCt analysis method.

[2] = test system: Wnt-responsive Sp5-Luc reporter in SW480 colon carcinoma cells; assay: Wnt activity screening assay (Sp5-Luc reporter); format: cell-based; settings: Homo sapiens
From the text: The screening assay for Wnt activity is described as follows. Reporter cell lines can be generated by stably transducing cancer cell lines (e.g., colon cancer) or primary cells (e.g., IEC-6 intestinal cells) with a lentiviral construct that includes a Wnt-responsive promoter driving expression of the firefly luciferase gene.
SW480 colon carcinoma cells were transduced with a lentiviral vector expressing luciferase with a human Sp5 promoter consisting of a sequence of eight TCF/LEF binding sites. […] These stably transduced SW480 cells were expanded in cell culture and used for all further screening activities. […] For Sp5-Luc reporter gene assays, the cells were plated at 4,000 cells/well in 384-well plates with a DMEM medium containing 1% fetal bovine serum, and 1% Penicillin-Streptomycin and incubated for 36 to 48 hours at 37° C. and 5% CO2. Following incubation, 15 μL of BriteLite Plus luminescence reagent (Perkin Elmer) was added to each well of the 384-well assay plates. The plates were placed on an orbital shaker for 2 min and then luminescence was quantified using the Envision (Perkin Elmer) plate reader.

CLK2 = target: T1, CLK2 (Homo sapiens, UniProt P49760); assay: CLK2 kinase activity assay (Z-lyte, Ser/Thr 6 peptide); format: biochemical; settings: recombinant CLK2 kinase, ATP 60 μM; read-out: EC50
T1 construct: purchased Thermo Fisher (Life Technologies), Z'-LYTE Kinase Assay Kits
T1 sequence (P49760 whole entry): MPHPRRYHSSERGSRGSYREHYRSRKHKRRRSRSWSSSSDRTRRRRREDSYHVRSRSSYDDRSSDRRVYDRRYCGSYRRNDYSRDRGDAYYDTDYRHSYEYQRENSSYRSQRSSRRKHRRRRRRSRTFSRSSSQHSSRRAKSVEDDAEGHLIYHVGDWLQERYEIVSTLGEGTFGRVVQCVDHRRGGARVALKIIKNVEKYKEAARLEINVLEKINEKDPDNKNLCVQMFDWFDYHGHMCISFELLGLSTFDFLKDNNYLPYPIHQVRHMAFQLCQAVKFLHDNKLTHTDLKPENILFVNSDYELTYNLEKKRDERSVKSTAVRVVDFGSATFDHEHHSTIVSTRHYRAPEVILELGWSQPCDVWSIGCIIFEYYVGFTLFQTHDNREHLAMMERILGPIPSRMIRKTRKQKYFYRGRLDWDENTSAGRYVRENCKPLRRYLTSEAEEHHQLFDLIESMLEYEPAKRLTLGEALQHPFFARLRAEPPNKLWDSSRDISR
Experimental: All reactions were performed in duplicate.

CLK3 = CLK3 (Homo sapiens, UniProt P49761); assay: CLK3 kinase activity assay (Z-lyte, Ser/Thr 18 peptide)
CLK3, sequence (P49761 whole entry): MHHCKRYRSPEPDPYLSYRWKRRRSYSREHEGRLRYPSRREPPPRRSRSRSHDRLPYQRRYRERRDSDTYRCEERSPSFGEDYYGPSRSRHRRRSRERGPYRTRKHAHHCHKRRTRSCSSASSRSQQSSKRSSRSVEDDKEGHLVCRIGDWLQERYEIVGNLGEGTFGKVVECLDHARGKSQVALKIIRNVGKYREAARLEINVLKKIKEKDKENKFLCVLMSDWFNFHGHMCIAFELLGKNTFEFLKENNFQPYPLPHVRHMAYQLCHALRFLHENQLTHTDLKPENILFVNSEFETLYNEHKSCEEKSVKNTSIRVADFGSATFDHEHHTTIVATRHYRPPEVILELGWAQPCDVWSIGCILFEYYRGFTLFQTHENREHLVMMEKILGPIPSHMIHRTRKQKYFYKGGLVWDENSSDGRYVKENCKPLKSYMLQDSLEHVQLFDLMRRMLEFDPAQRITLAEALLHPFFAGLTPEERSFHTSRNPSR

[3] = SW480 Sp5-Luc reporter, 36 to 48 hours, read-out: EC50
[4] = SW480, 3 μM, 24 hours, relative to DMSO, read-out: gene expression fold change CLK1
[5] = SW480, 3 μM, 24 hours, relative to DMSO, read-out: gene expression fold change CLK2
[6] = SW480, 3 μM, 24 hours, relative to DMSO, read-out: gene expression fold change CLK3
[7] = SW480, 3 μM, 24 hours, relative to DMSO, read-out: gene expression fold change DVL2
[8] = SW480, 3 μM, 24 hours, relative to DMSO, read-out: gene expression fold change LRP5
[9] = SW480, 3 μM, 24 hours, relative to DMSO, read-out: gene expression fold change SRSF1
[10] = SW480, 3 μM, 24 hours, relative to DMSO, read-out: gene expression fold change SRSF3
[11] = SW480, 3 μM, 24 hours, relative to DMSO, read-out: gene expression fold change SRSF4
[12] = SW480, 3 μM, 24 hours, relative to DMSO, read-out: gene expression fold change SRSF5
[13] = SW480, 3 μM, 24 hours, relative to DMSO, read-out: gene expression fold change TCF7
[14] = SW480, 3 μM, 24 hours, relative to DMSO, read-out: gene expression fold change TCF7L2

Compound: CNc1nc(NCc2ncccn2)c2c(-c3ccc4ncccc4c3)c[nH]c2n1 [Compound 9]
fold induction at 3 µM ([1]; SW480, 24 h, read-out: gene expression fold change CLK1): 0.16
fold induction at 3 µM ([1]; SW480, 24 h, read-out: gene expression fold change CLK2): 0.06
fold induction at 3 µM ([1]; SW480, 24 h, read-out: gene expression fold change CLK3): 0.51
fold induction at 3 µM ([1]; SW480, 24 h, read-out: gene expression fold change DVL2): 0.21
fold induction at 3 µM ([1]; SW480, 24 h, read-out: gene expression fold change LRP5): 0.18
fold induction at 3 µM ([1]; SW480, 24 h, read-out: gene expression fold change SRSF1): 1.91
fold induction at 3 µM ([1]; SW480, 24 h, read-out: gene expression fold change SRSF3): 0.62
fold induction at 3 µM ([1]; SW480, 24 h, read-out: gene expression fold change SRSF4): 0.62
fold induction at 3 µM ([1]; SW480, 24 h, read-out: gene expression fold change SRSF5): 0.56
fold induction at 3 µM ([1]; SW480, 24 h, read-out: gene expression fold change TCF7): 0.2
fold induction at 3 µM ([1]; SW480, 24 h, read-out: gene expression fold change TCF7L2): 0.29
EC50 ([2]; SW480): 92 nM

EC50 [2, 3]: 356 nM
Compound: Cc1n[nH]c2ccc(-c3cncc(OC[C@@H](N)Cc4ccccc4)c3)cc12 [Compound 3]

EC50 [2, 3]: 30 nM
Compound: Nc1ncc(NC(=O)c2n[nH]c3ccc(-c4cncc(CN5CCCCC5)c4)cc23)cn1 [Compound 33]

EC50 [2, 3]: 151 nM
EC50 (CLK2): 1 nM
Compound: O=C(Nc1cc2cc(-c3cncc(NCC4(F)CNC4)n3)ccc2cn1)C1CC1 [Compound 21]
fold induction at 3 µM [1, 4]: 0.02
fold induction at 3 µM [1, 5]: 0.03
fold induction at 3 µM [1, 6]: 0.05
fold induction at 3 µM [1, 7]: 0.15
fold induction at 3 µM [1, 8]: 0.07
fold induction at 3 µM [1, 9]: 0.22
fold induction at 3 µM [1, 10]: 0.07
fold induction at 3 µM [1, 11]: 0.03
fold induction at 3 µM [1, 12]: 0.16
fold induction at 3 µM [1, 13]: 0.48
fold induction at 3 µM [1, 14]: 0.1

EC50 [2, 3]: 773 nM
EC50 (CLK3): 18 nM
EC50 (CLK2): 2 nM
Compound: CN(C)Cc1cncc(-c2ccc3[nH]nc(-c4nc5c(-c6cc(F)cc(CNS(C)(=O)=O)c6)ccnc5[nH]4)c3c2F)c1 [Compound 41]

EC50 (CLK3): 14 nM
EC50 (CLK2): 2 nM
Compound: Cc1nnc(-c2ccc3cnc(NC(=O)c4ccnc(SC5CCN(C)CC5)c4)cc3c2)s1 [Compound 19]

EC50 [2, 3]: 41 nM
EC50 (CLK3): 10 nM
EC50 (CLK2): 1 nM
Compound: Cc1ccc(-c2cncc3[nH]c(-c4n[nH]c5ccc(-c6cncc(N)c6)nc45)nc23)s1 [Compound 7]

EC50 [2, 3]: 26 nM
EC50 (CLK3): 9 nM
Compound: CN1CCC(n2cc(C(=O)Nc3cc4cc(-c5cncc6[nH]ccc56)ccc4cn3)cn2)CC1 [Compound 23]
fold induction at 3 µM [1, 4]: 0.02
fold induction at 3 µM [1, 5]: 0.03
fold induction at 3 µM [1, 6]: 0.02
fold induction at 3 µM [1, 7]: 0.11
fold induction at 3 µM [1, 8]: 0.04
fold induction at 3 µM [1, 9]: 0.3
fold induction at 3 µM [1, 10]: 0.09
fold induction at 3 µM [1, 11]: 0.02
fold induction at 3 µM [1, 12]: 0.24
fold induction at 3 µM [1, 13]: 0.25
fold induction at 3 µM [1, 14]: 0.12

EC50 [2, 3]: 79 nM
EC50 (CLK3): 108 nM
EC50 (CLK2): 18 nM
Compound: NC1CN(c2cncc(-c3cc4c(-c5nc6c(-c7cccc(F)c7)cccc6[nH]5)n[nH]c4cn3)n2)C1 [Compound 44]

EC50 [2, 3]: 13 nM
EC50 (CLK3): 14 nM
EC50 (CLK2): 3 nM
Compound: CCC(=O)Nc1cncc(-c2ccc3[nH]nc(-c4nc5c(-c6cccnc6)cncc5[nH]4)c3c2)c1 [Compound 40]

EC50 [2, 3]: 133 nM
EC50 (CLK3): 40 nM
EC50 (CLK2): 4 nM
Compound: c1cncc(-c2ccc3[nH]nc(-c4nc5ccncc5[nH]4)c3c2)c1 [Compound 43]

EC50 [2, 3]: 14 nM
EC50 (CLK3): 62 nM
EC50 (CLK2): 5 nM
Compound: Fc1cccc(-c2cncc3[nH]c(-c4n[nH]cc4/C=C/c4cccnc4)nc23)c1 [Compound 29]

EC50 [2, 3]: 13 nM
Compound: NC(=O)c1ccc(NC(=O)c2n[nH]c3ccc(-c4cncc(CN5CCCCC5)c4)cc23)cn1 [Compound 30]

EC50 [2, 3]: 13 nM
EC50 (CLK3): 7 nM
EC50 (CLK2): 1 nM
Compound: CN(C)Cc1cncc(-c2ccc3[nH]nc(-c4nc5c(-c6cccc(F)c6)cncc5[nH]4)c3c2)c1 [Compound 38]

EC50 [2, 3]: 623 nM
EC50 (CLK3): 22 nM
EC50 (CLK2): 1 nM
Compound: Cc1ncc(-c2ccc3[nH]nc(-c4nc5c(-c6cc(F)cc(NCCN(C)C)c6)ccnc5[nH]4)c3n2)n1C [Compound 8]
